Experimental data reported in publication PMC8234864, “Early Effects of the Soluble Amyloid β25-35 Peptide in Rat Cortical Neurons: Modulation of Signal Transduction Mediated by Adenosine and Group I Metabotropic Glutamate Receptors” (International Journal of Molecular Sciences, 2021).
Where no end group is shown, it is not given here.

Assays:
Total mGluR = assay: L-[3H]glutamate radioligand binding in intact cortical neurons; parameters: species or system rat; details: for Total mGluR Bmax: L-[3H]Glutamate saturation binding
Experimental: Metabotropic glutamate receptors were determined using the radioligand L-[^3H]glutamate, as described previously. Radioligand binding assays using intact cells were performed in 24-well plates. Briefly, cells were washed with serum-free DMEM buffered with 20 mM HEPES pH 7.4 and incubated for 60 min at 37 °C in a final volume of 250 µL, in the presence of 100 μM AMPA, 100 μM NMDA, and 100 μM kainate, to block glutamate binding to these receptor types; 10 μM of the glutamate uptake inhibitor D,L-threo-β-hydroxyaspartic acid; and increasing concentrations of L-[^3H] glutamate (200 nM to 1.2 µM). Non-labeled L-Glutamate in a concentration of 10^5 times higher than the radioligand was used to determine non-specific binding. After incubation, cells were washed with 500 µL of ice-cold buffer and disrupted with 0.2% SDS. Well contents were then transferred to vials and a scintillation liquid mixture was added to measure radioactivity. At least two wells from each plate were reserved for protein concentration measurement.

mGluR2,3 = assay: Extracellular immunostaining of mGluR2,3 in non-permeabilized neurons; format: cell-based, rat; details: 25 µM, 24 h
Experimental: The quantitative analysis of the levels of Group I mGluR and mGluR2,3 at the plasma membrane was performed with extracellular targeted polyclonal antibodies (mGluR1, mGluR5 and mGluR2,3, Alomone Labs, Jerusalem, Israel), as previously described with minor modifications. Briefly, after 2 weeks in culture, the culture medium was removed and cells washed with Locke Buffer (LB, pH 7.4). Cells were then fixed with 4% paraformaldehyde for 10 min at room temperature and washed with three 10-min intervals with LB.
Nonspecific staining was suppressed by blocking with 3% normal goat serum in LB for 60 min. […]
(§1) To evaluate the degree of fluorescence intensity in cortical neurons, fluorescence was measured to estimate the protein expression in the different experimental conditions analyzed. Images (448.6 µm × 335.08 µm) obtained with a digital camera (Leica DFC350FX R2), attached to a Leica DMI6000B (Leica Microsystems, Wetzlar, Germany) fluorescent microscope, were used for quantification (20x HCX PL FLUOTAR 0.4 dry objective). […] Fluorescence intensity was estimated by averaging mean grey values. […] Data were normalized to the total number of cells in the analyzed fields. The mean fluorescence background, calculated in the unstained regions between neurons, was subtracted from the fluorescence intensity of each data point. […]

[1] = tested on: A2AR (ADORA2A) gene expression; assay: A2AR gene expression by real-time PCR; format: cell-based, rat; details: 25 µM, 24 or 48 h
Experimental: (§2) Total RNA was extracted using an ABI 6100 Nucleic Acid PrepStation according to the manufacturer’s protocol (Applied Biosystems Inc., Foster City, CA, USA). Total RNA from cells was isolated and stored at −80 °C. The quality of isolated RNA was estimated by the ratio A260/A280 and was in the range of 1.9–2.1. RNA integrity was evaluated by agarose gel electrophoresis according to MIQE guidelines using the “bleach gel” method. RNA concentrations were determined from the A260. One microgram of total RNA was reverse transcribed using Applied Biosystems High-Capacity cDNA Archive Kit.
(§3) To assess relative gene expression in neurons, quantitative real-time RT-PCR analysis was performed with an Applied Biosystems Prism 7500 Fast Sequence Detection System using TaqMan® universal PCR master mix according to the manufacturer’s specifications. […] Levels of RNA expression were determined using the 7500 Fast System SDS software version 1.3.1 (Applied Biosystems) according to the 2^−ΔΔCt method. […] The results from three independent repeat assays, performed in different plates each using different cDNA’s from the cultures analyzed, were averaged to produce a single mean quantity value for each mRNA.

PLCβ1 = PLCβ1 immunocytochemistry in permeabilized neurons; format: cell-based, rat; details: 25 µM, 24 h
Experimental: For PLCβ1 immunostaining, the protocol described above was followed with the introduction of modified steps. Before the nonspecific staining blockade with 3% normal goat serum, cells were pre-treated with Triton 0.25% in LB for 10 min to induce membrane permeabilization. Cells were incubated overnight in blocking buffer with mouse anti-PLCβ1 monoclonal antibody (1:500) from Millipore (Bedford, MA, USA). The following day, after three LB washes (10 min each), cortical neurons were exposed to Cy3-conjugated goat anti-mouse IgG (1:600). In all immunochemical procedures, internal controls were carried out where primary antibodies were not added to the blocking buffer.
as §1

[2] = tested on: mGluR1 (GRM1) gene expression; assay: mGluR1 gene expression by real-time PCR; format: cell-based, rat; details: 25 µM, 24 or 48 h, vs control neurons
Experimental: as §2, §3

[3] = neurons exposed to 25 µM for 24 h
[4] = neurons exposed to 25 µM for 48 h

mGluR affinity (1/KD), % of the control value (Total mGluR; 25 µM, 24 or 48 h): ~50%
Total mGluR density (Bmax) increase over control value (Total mGluR; 25 µM, 24 h): 61%
Total mGluR density (Bmax) increase over control value (Total mGluR; 25 µM, 48 h): 99%
Kd (Total mGluR; [3]): 1610 ± 423 nM
Total mGluR Bmax (Total mGluR; [3]): 952 ± 9 pmol/mg prot
Kd (Total mGluR; [4]): 1520 ± 163 nM
Total mGluR Bmax (Total mGluR; [4]): 1178 ± 93 pmol/mg prot
Sequence: GSNKGAIIGLM [Aβ25-35]
mGluR2,3 density at the membrane surface of cell bodies (mGluR2,3): decrease
A2AR gene expression [1]: significantly increased
total PLCβ1 protein decrease over control value (PLCβ1): 40%
mGluR1 gene expression [2]: increase
